Source: ChEMBL document CHEMBL1201862, “PubChem BioAssay data set” (2004)
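Assay format: 96-well plates, 48-hour exposure. Here, GI50 denotes the concentration required for 50% inhibition of growth.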 Calls of active or inactive are those of the source. Rule as the data show it: active = GI50 up to about 1.1 µM and inactive = higher.

Assays:
Experiment in all cases: NCI anticancer screen, dose series, 48 h
[1] = tested on: A498
[2] = tested on: COLO 205
[3] = tested on: DLD-1
[4] = tested on: HOP-62
[5] = tested on: KM-20L2
[6] = tested on: KM12
[7] = tested on: Malme-3M
[8] = tested on: NCI-H23
[9] = tested on: RPMI-8226
[10] = tested on: SF-539
[11] = tested on: SK-MEL-2
[12] = tested on: SK-OV-3
[13] = tested on: SW-620
[14] = tested on: U-251
[15] = tested on: UACC-257
[16] = tested on: UO-31
[17] = tested on: NCI-H522

Measured: GI50

CN1N=CSC12C(=O)N(c1ccccc1)C(=O)N2c1ccccc1 (configuration not stated)
inactive: [1] > 100 µM | [2] > 100 µM | [3] > 100 µM | [4] > 100 µM | [5] > 100 µM | [6] > 100 µM | [7] > 100 µM | [8] > 100 µM | [9] > 100 µM | [10] > 100 µM | [11] > 100 µM | [12] > 100 µM | [13] > 100 µM | [14] > 100 µM | [15] > 100 µM | [16] > 100 µM

C[C@]12CCC(=O)C=C1CC[C@@H]1C2CC[C@]2(C)Nc3c(cnn3-c3ccccc3)CC12 (some centres not stated)
inactive: [1] > 100 µM | [3] > 100 µM | [4] > 100 µM | [5] > 100 µM | [6] > 10 µM | [7] > 100 µM | [8] > 100 µM | [9] > 100 µM | [10] > 100 µM | [11] > 100 µM | [12] > 100 µM | [13] > 100 µM | [14] > 100 µM | [15] > 100 µM | [16] > 100 µM

CC1=C2CCCC2C/C(=N/Nc2ccc([N+](=O)[O-])cc2[N+](=O)[O-])CC1 (configuration not stated)
inactive: [1] > 100 µM | [2] > 100 µM | [4] > 100 µM | [5] > 100 µM | [6] > 100 µM | [7] > 100 µM | [8] > 100 µM | [17] > 100 µM | [9] > 100 µM | [10] > 100 µM | [11] > 100 µM | [12] > 100 µM | [13] > 100 µM | [14] > 100 µM | [15] > 100 µM | [16] > 100 µM

C=C[C@H]1C=Cc2c(OC)cccc2[C@@H]1COP1(=S)NC(C)C(c2ccccc2)O1 (some centres not stated)
inactive: [2] 97.3 µM | [3] > 100 µM | [4] > 100 µM | [5] > 100 µM | [6] > 100 µM | [8] 50.1 µM | [17] 29.4 µM | [9] 27 µM | [10] > 100 µM | [12] > 100 µM | [13] > 100 µM | [14] 86.3 µM

CCOc1ccc(NC(=O)CC2C(=O)Nc3ccccc3S2(=O)=O)cc1 (configuration not stated)
inactive: [1] > 100 µM | [2] > 100 µM | [3] > 100 µM | [4] 41.1 µM | [5] > 100 µM | [6] > 100 µM | [7] > 100 µM | [8] > 100 µM | [17] > 100 µM | [9] > 100 µM | [10] 55.1 µM | [11] 75.2 µM | [13] > 100 µM | [14] 33.2 µM | [15] > 100 µM | [16] > 100 µM

O=C1c2cccc3cccc(c23)C(=O)N1CCCN1CCN(CCCN2C(=O)c3cccc4cccc(c34)C2=O)CC1
inactive: [1] > 100 µM | [2] > 100 µM | [3] > 100 µM | [4] > 100 µM | [5] > 100 µM | [6] > 100 µM | [7] > 100 µM | [8] > 100 µM | [9] > 100 µM | [10] > 100 µM | [11] > 100 µM | [12] > 100 µM | [13] > 100 µM | [14] > 100 µM | [15] > 100 µM | [16] > 100 µM

O=C(Nc1ccccc1[N+](=O)[O-])c1ccccc1
inactive: [1] > 100 µM | [2] > 100 µM | [3] 72.3 µM | [4] 67.5 µM | [5] > 100 µM | [6] 55.5 µM | [7] > 100 µM | [8] > 100 µM | [17] 56.9 µM | [9] 80.9 µM | [10] > 100 µM | [12] > 100 µM | [13] > 100 µM | [14] > 100 µM | [15] > 100 µM | [16] 61.7 µM
